In US11884710B2, “Peptide compounds and methods of use in wound healing” (priority 2013, dated 2024):
Square brackets hold non-standard residues; d marks the D form. Peptide text beside a SMILES is read from it. PEG2 = NCCOCCOCCC(=O)O

Experiments:
P. aeruginosa ATCC 27853 = type: cell-based, Pseudomonas aeruginosa; conditions: Pseudomonas; inoculum 1×10^6 CFU/ml; 60 to 180 minute incubation
Procedure: (§1) In vitro bactericidal activity: The three peptide compounds BCC01-5RMP (SEQ ID NO:23), BCC002-5RMP (SEQ ID NO:21), and BCC003-5RMP (SEQ ID NO:22) were assayed for in vitro bactericidal activity against Pseudomonas aeruginosa, Escherichia coli, Salmonella typhimurium, and Acinetobacter baumannii. The starting inoculum for all experiments was 1×10^6 colony forming units (CFU)/ml. The CFU remaining at the end of 60 to 180 minute incubation was determined, and the data plotted as a log reduction in CFU/ml.
Table 4 further compares the activity of several other compounds, including the “5R” versions of BCC01, i.e., SEQ ID NO:20 (which comprises SEQ ID NO: 7 with five additional arginines), the “5R” version of BCC002 (i.e., SEQ ID NO:18, which comprises SEQ ID NO: 1 with five additional arginines), and the 5RMP versions of BCC01 (SEQ ID NO: 23) and BCC002 (SEQ ID NO: 21). The data generally indicate the superiority of BCC003-5RMP (SEQ ID NO:22) and BCC002-5RMP (SEQ ID NO: 21) and the superiority of the 5R or 5RMP versions of the peptide over the “AEEP only” peptide against P. aeruginosa.

[1] = test system: P. aeruginosa (ATCC 27853); assay: Mouse model of Pseudomonas (bacterial) keratitis; type: in vivo; conditions: C57/BL6 mice; topical peptide 0.25 to 0.75 mg/ml; 48 hours post-infection
Procedure: A circular wound was created on the mouse cornea by removing the epithelium and infected with 10^5 colony forming units (CFU) of P. aeruginosa (ATCC® 27853™ (American Type Culture Collection, Manassas, Va.)). Infected wounds were treated with saline (0.9% sodium chloride, vehicle control) or saline containing indicated concentrations of peptide every 15 minutes for 2 hours, then every 30 minutes for 3 hours on the first day. Infected wounds were treated twice on the second day and once on the third day. Mice were killed at 48 hours post-infection, and CFU/eye were quantified. The means were plotted and are representative of 5 to 9 mice per group. Mann Whitney test was performed for each group as compared to the saline control group. *P=0.014. In compound names such as BCC02-5RMP used herein, “R” represents arginine, and “MP” represents a small PEG molecule as defined elsewhere herein (such as, for example but not by way of limitation, “AEEP”).
(§2) A circular wound was created on the mouse cornea by removing the epithelium, and the wound was infected with 10^5 CFU of P. aeruginosa (ATCC® 27853™ (American Type Culture Collection, Manassas, Va.)). Infected wounds were treated with saline or saline containing indicated concentrations (2, 5, 10, and 20 mg/ml) of peptide every 30 minutes for 6 hours on the first day. Infected wounds were treated twice on the second day and once on the third day. Mice were killed at 48 hours post-infection, and the CFU/eye were quantified. The means are plotted and are representative of 5 mice per group. Mann Whitney test was performed for each group as compared to the saline control group. *P=0.015 and **P=0.097.
as §2, with “representative of 4 to 5 mice” for “representative of 5 mice”, “control group.” for “control group. *P=0.015 and **P=0.097.”
as §2, with “group. **P=0.0079 by” for “group.”, “test” for “test was performed for each group”, “group.” for “group. *P=0.015 and **P=0.097.”
A circular wound (2 mm) was created on the mouse cornea by removing the epithelium and infecting the wound with 10^5 CFU of P. aeruginosa (ATCC® 27853™ (American Type Culture Collection, Manassas, Va.)). Infected wounds were treated with saline or saline containing indicated concentrations of peptide every 15 minutes for 2 hours, then every 30 minutes for 3 hours on the first day. […] Mice were killed at 48 hours post-infection, and the colony forming units per eye (CFU/eye) were quantified. […]

[2] = test system: Pseudomonas clinical isolate B64; assay: BIOSCREEN C growth assay, peptide plus antibiotic combinations; type: cell-based, Pseudomonas aeruginosa
Procedure: FIGS. 28A and 28B show the effect of BCC002-5R-MP (SEQ ID NO:21) in combination with Cefotaxime on MIC using Pseudomonas clinical isolate B64. Cefotaxime (Cefo) and peptide combinations included a constant amount of Cefotaxime (2.81 μg/ml) with suboptimal amounts of peptide (0, 0.34, 1.01, and 3.04 μg/ml). […] FIG. 28B is a histogram showing Fractional area (FA), which is an indication of the MIC.
FIG. 29B is a histogram showing Fractional area (FA), which is an indication of the MIC.
FIGS. 30A and 30B show the effect of BCC02-5R-MP (SEQ ID NO:21) in combination with Levofloxacin (Levo) and peptide combinations included a constant amount of Levofloxacin (3.6 μg/ml) with suboptimal amounts of peptide (0, 0.34, 1.01, 3.04 μg/ml). […] FIG. 30B is a histogram showing Fractional area (FA), which is an indication of the MIC.
The peptide and antibiotics were set up in the wells of the microtiter plate at starting ratios of MIC equivalents of antibiotic:peptide at 3:1, 1:1, and 1:3. They were serially diluted to concentrations well below suboptimal/sublethal levels of the antibiotic and peptide. The organism was added (1×10^5 CFU/well), the BIOSCREEN C™ assay (Growth Systems USA, Piscataway, N.J.) was performed, and data was collected over 24 hours.

[3] = test system: release of TNF-α from LPS-stimulated RAW264.7 cells; assay: LPS neutralization: TNF-α release from LPS-stimulated RAW264.7 cells; type: cell-based, mouse
Procedure: (§3) The well-characterized response of RAW264.7 macrophage cells was used to produce tumor necrosis-factor-alpha (TNF-α) in response to LPS to determine whether the peptides could dampen the release of this cytokine. […] Importantly, pre-treatment (3 hours prior to LPS addition) as well as post-treatment of the RAW264.7 cells (3 hours post LPS addition) with peptide dampened the cytokine release. […] The finding that the novel peptides bind and neutralize the effect of Pseudomonas LPS is of critical importance since this ensures that the novel therapeutic peptide compounds described herein will not only kill the bacteria, but will also neutralize the LPS endotoxin released by the bacteria which plays such an important role in the rapid progression of sepsis.
(§4) BCC01-5RMP (SEQ ID NO:23), BCC002-5RMP (SEQ ID NO:21), and BCC003-5RMP (SEQ ID NO:22) were tested for their ability to bind lipopolysaccharide (LPS) using the limulus amebocyte lysate method (LAL). […] There was no statistical difference in their ability to bind LPS using the LAL technique. The ability of the peptides to neutralize LPS was assessed by determining their ability to attenuate the release of tumor necrosis factor-alpha (TNF-α) from LPS-stimulated RAW264.7 cells (a mouse macrophage cell line). […] No significant differences were observed between the three peptides to neutralize LPS as measured by cytokine release. Peptides based on sequence 120-146 (SEQ ID NOS:28-31) also bind and neutralize Pseudomonas LPS.

Escherichia coli = assay: In vitro bactericidal activity against Escherichia coli; type: cell-based; conditions: E. coli; inoculum 1×10^6 CFU/ml; 60 to 180 minute incubation
Procedure: as §1

Salmonella typhimurium = assay: In vitro bactericidal activity against Salmonella typhimurium; type: cell-based; conditions: inoculum 1×10^6 CFU/ml, 60 to 180 minute incubation
Procedure: as §1

Acinetobacter baumannii = assay: In vitro bactericidal activity against Acinetobacter baumannii; type: cell-based; conditions: inoculum 1×10^6 CFU/ml, 60 to 180 minute incubation
Procedure: as §1

Pseudomonas LPS = assay: LPS binding, Limulus Amebocyte Lysate (LAL) assay; conditions: LAL method
Procedure: as §3, §4

| SMILES | in vitro bactericidal activity, in words (P. aeruginosa ATCC 27853) | CFU/eye, in words [1] | sensitivity of the bacterium to Cefotaxime with peptide, in words ([2]; 3.04 μg/ml of peptide with Cefotaxime 2.81 μg/ml) | effect of peptide on the killing effect of Cefotaxime, in words ([2]; 0.34 and 1.0 μg/ml of peptide with Cefotaxime 2.81 μg/ml) | neutralization of LPS: attenuation of TNF-α release [3] | in vitro bactericidal activity, in words (Escherichia coli) | in vitro bactericidal activity, in words (Salmonella typhimurium) | in vitro bactericidal activity, in words (Acinetobacter baumannii) | binding of Pseudomonas LPS (Pseudomonas LPS) |
| --- | --- | --- | --- | --- | --- | --- | --- | --- | --- |
| CC[C@H](C)[C@H](NC(=O)[C@H](CC(C)C)NC(=O)[C@H](C)NC(=O)CNC(=O)CNC(=O)[C@H](CO)NC(=O)[C@H](Cc1ccccc1)NC(=O)[C@H](Cc1c[nH]cn1)NC(=O)[C@H](CCCNC(=N)N)NC(=O)CNC(=O)[C@H](CCC(N)=O)NC(=O)[C@H](CC(N)=O)NC(=O)[C@H](CCCNC(=N)N)NC(=O)[C@H](CCCNC(=N)N)NC(=O)[C@H](CCCNC(=N)N)NC(=O)[C@H](CCCNC(=N)N)NC(=O)CCOCCOCCNC(=O)CCOCCOCCN)C(=O)N[C@@H](Cc1c[nH]cn1)C(=O)N[C@@H](C)C(=O)N[C@@H](CCCNC(=N)N)C(=O)N[C@@H](Cc1ccccc1)C(=O)N[C@H](C(=O)N[C@@H](CCSC)C(=O)N[C@H](C(=O)N[C@@H](C)C(=O)N[C@@H](C)C(=O)N[C@@H](CO)C(=O)N[C@@H](CS)C(=O)N[C@@H](Cc1ccccc1)C(=O)N[C@@H](CCC(N)=O)C(=O)N[C@@H](CCCNC(=N)N)C(=O)O)[C@@H](C)O)C(C)C [BCC02-5RMP] (H-[PEG2][PEG2]RRRRNQGRHFSGGALIHARFVMTAASCFQR-OH; C-terminus assumed) | most active | effectively killed all bacteria and cured the infection | now sensitive | no statistical effect | attenuate the release of TNF-α | strong, but lesser activity | strong, but lesser activity | most active | bound Pseudomonas LPS |
| CC[C@H](C)[C@H](NC(=O)[C@H](CC(C)C)NC(=O)[C@H](C)NC(=O)CNC(=O)CNC(=O)[C@H](CS)NC(=O)[C@H](Cc1ccccc1)NC(=O)[C@H](Cc1c[nH]cn1)NC(=O)[C@H](CCCNC(=N)N)NC(=O)CNC(=O)[C@H](CCC(N)=O)NC(=O)[C@H](CC(N)=O)NC(=O)[C@H](CCCNC(=N)N)NC(=O)[C@H](CCCNC(=N)N)NC(=O)[C@H](CCCNC(=N)N)NC(=O)[C@H](CCCNC(=N)N)NC(=O)CCOCCOCCNC(=O)CCOCCOCCN)C(=O)N[C@@H](Cc1c[nH]cn1)C(=O)N[C@@H](C)C(=O)N[C@@H](CCCNC(=N)N)C(=O)N[C@@H](Cc1ccccc1)C(=O)N[C@H](C(=O)N[C@@H](CCSC)C(=O)N[C@H](C(=O)N[C@@H](C)C(=O)N[C@@H](C)C(=O)N[C@@H](CO)C(=O)N[C@@H](CO)C(=O)N[C@@H](Cc1ccccc1)C(=O)N[C@@H](CCC(N)=O)C(=O)N[C@@H](CCCNC(=N)N)C(=O)O)[C@@H](C)O)C(C)C [BCC03-5RMP] (H-[PEG2][PEG2]RRRRNQGRHFCGGALIHARFVMTAASSFQR-OH) | most active | – | – | – | attenuate the release of TNF-α | strong, but lesser activity | strong, but lesser activity | most active | bound Pseudomonas LPS |
